Data on nine compounds can be found in patent publication US8362000B2, “Azetidinyl diamides as monoacylglycerol lipase inhibitors” (Janssen Pharmaceutica NV, priority 2009, dated 2013).

Structures are written as SMILES. Numbering of substitutions follows the chain as printed. Like-named read-outs stand apart in the source and are kept apart here.

Test [1] addresses T1, MGL (Rattus norvegicus, UniProt Q8R431).
T1 construct: one g rat brain was homogenized using a Polytron homogenizer; from tissue; host or cells: rat brain homogenate
T1 sequence (Q8R431 1-303): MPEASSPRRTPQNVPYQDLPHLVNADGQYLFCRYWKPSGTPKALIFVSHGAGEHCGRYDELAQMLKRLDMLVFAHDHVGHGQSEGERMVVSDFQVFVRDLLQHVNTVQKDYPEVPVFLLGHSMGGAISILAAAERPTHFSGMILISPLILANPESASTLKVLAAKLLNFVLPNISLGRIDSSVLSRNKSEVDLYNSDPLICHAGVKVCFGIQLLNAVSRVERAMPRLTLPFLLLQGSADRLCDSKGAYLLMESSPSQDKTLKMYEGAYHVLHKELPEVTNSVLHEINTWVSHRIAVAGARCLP
As to the kind of experiment: 2-AG accumulation assay in rat brain homogenate. The conditions noted are these: rat brain homogenate, 2-AG accumulation as percent of vehicle; for 2-AG accumulation, % of vehicle control at 0.1 µM: compound 0.1 μM, read-out: Rat Brain 2AG % VehCntrl (%) @ 0.1 μM; for 2-AG accumulation, % of vehicle control at 1 µM: compound 1 μM, read-out: Rat Brain 2AG % VehCntrl (%) @ 1 μM; for 2-AG accumulation, % of vehicle control at 10 µM: compound 10 μM, read-out: Rat Brain 2AG % VehCntrl (%) @ 10 μM; for 2-AG accumulation, % of vehicle control at 0.01 µM: compound 0.01 μM, read-out: Rat Brain 2AG % VehCntrl (%) @ 0.01 μM. Format: biochemical.

Test [2] has as its target T2, mutant MGL (Homo sapiens, UniProt Q99685, L169S/L176S).
T2 sequence (Q99685 1-303 L169S/L176S): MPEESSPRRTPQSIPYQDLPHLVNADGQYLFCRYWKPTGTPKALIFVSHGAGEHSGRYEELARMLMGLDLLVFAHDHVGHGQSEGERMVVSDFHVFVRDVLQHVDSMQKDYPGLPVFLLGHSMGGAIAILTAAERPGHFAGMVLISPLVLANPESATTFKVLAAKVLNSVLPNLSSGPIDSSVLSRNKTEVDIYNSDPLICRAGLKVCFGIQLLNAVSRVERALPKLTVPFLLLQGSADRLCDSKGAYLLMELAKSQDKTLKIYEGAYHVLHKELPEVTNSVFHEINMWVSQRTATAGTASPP
Nature of the test: MGL ThermoFluor assay - mutant. Format: binding.

Test [3] has as its target T3, purified wild type MGL (wt-MGLL 6H-11-313) (Homo sapiens, UniProt Q99685).
T3 sequence (Q99685 1-303): T2 sequence (Q99685 1-303 L169S/L176S) with S169L, S176L

For test [4], the system named is CFA-induced paw radiant heat hypersensitivity. Nature of the test: CFA-induced paw radiant heat hypersensitivity. Conditions: Rattus norvegicus, po, 30 mg/kg p.o., HPβCD, last time point 180 or 300 min. Format: in vivo, rat.
Setting [5] is: ThermoFluor concentration-response, read-out: MGL mutant ThermoFluor Kd.
Setting [6] is: group mean values, read-out: CFA thermal hypersensitivity Method 1: peak % reversal.
Setting [7] is: individual animal values, read-out: CFA thermal hypersensitivity Method 2: peak % reversal.
Setting [8] is: ThermoFluor thermal stability binding assay, read-out: MGL mutant ThermoFluor Kd.

For `Cc1nc(-c2cccc(C(F)(F)F)c2)sc1C(=O)N1CC(N2CCN(C(=O)c3cscn3)CC2)C1` [Cpd 485, 1-[1-({4-Methyl-2-[3-(trifluoromethyl)phenyl]-1,3-thiazol-5-yl}carbonyl)azetidin-3-yl]-4-(1,3-thiazol-4-ylcarbonyl)piperazine], in test [1], the 2-AG accumulation, % of vehicle control at 0.1 µM was found to be 208%; the 2-AG accumulation, % of vehicle control at 1 µM was found to be 396%; the 2-AG accumulation, % of vehicle control at 10 µM was found to be 818%. Further, in test [2] (setting [5]), the Kd worked out at 0.0257 µM. Further, the IC50 in test [3] was 0.102 µM. Further, in test [4] (setting [6]), the inhibition in vivo at 30 mg/kg was found to be 34.4%. The inhibition in vivo at 30 mg/kg in test [4] (setting [7]) came to 32.3%.

As for `O=C(c1cscn1)N1CCN(C2CN(C(=O)c3sc4cc(C(F)(F)F)ccc4c3F)C2)CC1` [Cpd 653], the 2-AG accumulation, % of vehicle control at 1 µM in test [1] amounted to 861%. In addition, the Kd in test [2] (setting [5]) was found to be 0.011 µM. This compound also displayed an IC50 in test [3] of 0.007 µM. Moreover, in test [4] (setting [6]), the inhibition in vivo at 30 mg/kg is -10.7%.

As for `O=C(c1ccccc1)N1CCN(C2CN(C(=O)c3sc4cc(C(F)(F)F)ccc4c3F)C2)CC1` [Cpd 509], in test [1], the 2-AG accumulation, % of vehicle control at 1 µM was determined as 242%. Further, the Kd in test [2] (setting [5]) came to 0.033 µM. This compound also came in with an IC50 in test [3] of 0.136 µM. In addition, the inhibition in vivo at 30 mg/kg in test [4] (setting [6]) was found to be 17.8%.

As for `O=C(c1cscn1)N1CCN(C2CN(C(=O)c3cc4ccc(C(F)(F)F)cc4s3)C2)CC1` [Cpd 337], in test [1], the 2-AG accumulation, % of vehicle control at 0.01 µM turned out to be 103%; the 2-AG accumulation, % of vehicle control at 0.1 µM was found to be 166%; the 2-AG accumulation, % of vehicle control at 1 µM turned out to be 272%; the 2-AG accumulation, % of vehicle control at 10 µM came out at 671%. The Kd in test [2] (setting [8]) stood at 0.0498 µM. Further, half-maximal inhibition in test [3] (IC50) was put at 0.013 µM. The inhibition in vivo at 30 mg/kg in test [4] (setting [6]) came to 14.3%. The inhibition in vivo at 30 mg/kg in test [4] (setting [7]) turned out to be 17.6%.

As for `O=C(c1ccc2c(ccn2-c2ccc(F)c(F)c2)c1)N1CC(N2CCN(C(=O)c3ccc[nH]3)CC2)C1` [Cpd 1366, 1-(3,4-Difluorophenyl)-5-({3-[4-(1H-pyrrol-2-ylcarbonyl)piperazin-1-yl]azetidin-1-yl}carbonyl)-1H-indole], the 2-AG accumulation, % of vehicle control at 1 µM in test [1] worked out at 586%. Besides, in test [2] (setting [5]), the Kd worked out at 0.012 µM. In test [3], this compound showed an IC50 of less than 0.005 µM. Moreover, the inhibition in vivo at 30 mg/kg in test [4] (setting [6]) was 47.1%.

On to `O=C(c1ccc2c(cnn2-c2ccccc2)c1)N1CC(N2CCN(C(=O)c3nccs3)CC2)C1` [Cpd 1360, 1-Phenyl-5-({3-[4-(1,3-thiazol-2-ylcarbonyl)piperazin-1-yl]azetidin-1-yl}carbonyl)-1H-indazole], for which the 2-AG accumulation, % of vehicle control at 1 µM in test [1] was determined as 576%. The Kd in test [2] (setting [5]) was 0.008 µM. For the same compound, the 50% inhibitory concentration (IC50) in test [3] was less than 0.005 µM. For the same compound, the inhibition in vivo at 30 mg/kg in test [4] (setting [6]) and in test [4] (setting [7]) was 40.5% each time.

For `O=C(c1ccc(-c2ccccc2)cc1)N1CC(N2CCN(C(=O)c3nccs3)CC2)C1` [Cpd 9, 1-[1-(Biphenyl-4-ylcarbonyl)azetidin-3-yl]-4-(1,3-thiazol-2-ylcarbonyl)piperazine], in test [1], the 2-AG accumulation, % of vehicle control at 0.01 µM was determined as 99%; the 2-AG accumulation, % of vehicle control at 0.1 µM was determined as 184%; the 2-AG accumulation, % of vehicle control at 1 µM stood at 529%. Further, the Kd in test [2] (setting [5]) came out at 0.00248 µM. Further, half-maximal inhibition in test [3] (IC50) was put at 0.0174 µM. Besides, the inhibition in vivo at 30 mg/kg in test [4] (setting [6]) was 75.4%. Besides, in test [4] (setting [7]), the inhibition in vivo at 30 mg/kg is 77.4%.

Take `O=C(c1ccc2c(-c3ccc(C(F)(F)F)cc3)c[nH]c2c1)N1CC(N2CCN(C(=O)c3nccs3)CC2)C1` [Cpd 1340]: in test [1], the 2-AG accumulation, % of vehicle control at 1 µM is 761%. The Kd in test [2] (setting [5]) is 0.001 µM. This compound also showed an IC50 in test [3] of less than 0.005 µM. The inhibition in vivo at 30 mg/kg in test [4] (setting [6]) came to 13.1%.

Consider `O=C(c1nccs1)N1CCN(C2CN(C(=O)c3sc4cc(C(F)(F)F)c(F)cc4c3Cl)C2)CC1` [Cpd 900], for which, in test [1], the 2-AG accumulation, % of vehicle control at 1 µM came to 543%. Moreover, the Kd stood at 0.001 µM in test [2] (setting [8]) and 0.001 µM in test [2] (ThermoFluor, compound concentration measured by qNMR, read-out: MGL mutant ThermoFluor qKd (μM) (using qNMR conc.)). The same compound gave an IC50 in test [3] of less than 0.005 µM. The inhibition in vivo at 30 mg/kg in test [4] (setting [6]) was determined as 8.5%.
